Results taken from PubChem BioAssay AID248 (DTP/NCI, 2004).
Values joined by “and” are separate entries in the source; they are usually repeats but may differ in a detail not shown here. Equal entries are not always repeated. Toxic doses and inconclusive results are not listed. Cut-off read from the data, not from the text of the source: active = T/C of 150% or more; inactive = T/C below 125%.

System: L1210 leukemia ip in BDF1 mice, survival T/C
Assay: NCI In Vivo Anticancer Drug Screen. Data for tumor model L1210 Leukemia (intraperitoneal) in B6D2F1 (BDF1) mice
Conditions: endpoint: mean survival time, higher = longer survival
Procedure, shortened: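 Tumor cells were implanted, animals were treated, and survival was followed. The result divides the treated measurement by the vehicle-control measurement.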

[1] = dose: 50.0 mg/kg/injection, schedule: Q01DX001 (ip), vehicle: saline
[2] = dose: 200.0 mg/kg/injection, schedule: Q01DX001 (ip), vehicle: carboxymethylcellulose (CMC)
[3] = dose: 400.0 mg/kg/injection, schedule: Q01DX001 (ip), vehicle: saline
[4] = dose: 100.0 mg/kg/injection, schedule: Q01DX001 (ip), vehicle: saline
[5] = dose: 200.0 mg/kg/injection, schedule: Q01DX001 (ip), vehicle: saline
[6] = dose: 50.0 mg/kg/injection, schedule: Q01DX009 (ip), vehicle: Klucel (hydroxypropylcellulose) (HPC)
[7] = dose: 100.0 mg/kg/injection, schedule: Q01DX009 (ip), vehicle: Klucel (hydroxypropylcellulose) (HPC)
[8] = dose: 200.0 mg/kg/injection, schedule: Q01DX009 (ip), vehicle: Klucel (hydroxypropylcellulose) (HPC)
[9] = dose: 400.0 mg/kg/injection, schedule: Q01DX009 (ip), vehicle: Klucel (hydroxypropylcellulose) (HPC)

Measured: T/C

CS(=O)(=O)OCCF
inactive: dose: 0.25 mg/kg/injection, schedule: Q01DX009 (ip), vehicle: saline 101 % of control | dose: 0.5 mg/kg/injection, schedule: Q01DX009 (ip), vehicle: saline 103 % of control | dose: 1.0 mg/kg/injection, schedule: Q01DX009 (ip), vehicle: saline 103 % of control | dose: 2.5 mg/kg/injection, schedule: Q01DX009 (ip), vehicle: carboxymethylcellulose (CMC) 103 % of control | dose: 2.5 mg/kg/injection, schedule: Q01DX009 (ip), vehicle: saline 103 % of control | dose: 5.0 mg/kg/injection, schedule: Q01DX009 (ip), vehicle: carboxymethylcellulose (CMC) 108 % of control | dose: 6.25 mg/kg/injection, schedule: Q04DX003 (ip), vehicle: saline with Tween-80 114 % of control | dose: 9.0 mg/kg/injection, schedule: Q01DX009 (ip), vehicle: saline 92 % of control | dose: 10.5 mg/kg/injection, schedule: Q01DX015 (ip), vehicle: saline 97 % of control | dose: 10.8 mg/kg/injection, schedule: Q01DX015 (ip), vehicle: saline 100 % of control | dose: 12.5 mg/kg/injection, schedule: Q01DX001 (ip), vehicle: acetone 103 % of control | dose: 12.5 mg/kg/injection, schedule: Q01DX009 (ip), vehicle: acetone 106 % of control | dose: 18.0 mg/kg/injection, schedule: Q01DX015 (ip), vehicle: saline 114 % of control | dose: 20.0 mg/kg/injection, schedule: Q01DX009 (ip), vehicle: carboxymethylcellulose (CMC) 87 % of control | dose: 25.0 mg/kg/injection, schedule: Q01DX001 (ip), vehicle: acetone 116 % of control | dose: 25.0 mg/kg/injection, schedule: Q01DX001 (ip), vehicle: saline 94 % of control | dose: 30.0 mg/kg/injection, schedule: Q01DX001 (ip), vehicle: saline 98 % of control | dose: 30.0 mg/kg/injection, schedule: Q01DX015 (ip), vehicle: saline 113 % of control and 91 % of control | dose: 44.0 mg/kg/injection, schedule: Q01DX001 (ip), vehicle: saline 106 % of control and 122 % of control | dose: 50.0 mg/kg/injection, schedule: Q01DX001 (ip), vehicle: acetone 103 % of control | dose: 50.0 mg/kg/injection, schedule: Q01DX001 (ip), vehicle: carboxymethylcellulose (CMC) 117 % of control | [1] 102 % of control and 109 % of control | [2] 97 % of control | [3] 87 % of control

C=C1C(=O)O[C@@H]2[C@H]1CC[C@H](C)[C@@H]1CCC(=O)[C@@]21C
inactive: [4] 102 % of control | [5] 100 % of control | [3] 98 % of control

COc1ccc(C(=O)OCCN(CCN(CCOC(=O)c2ccc(OC)cc2)C(=O)c2ccc(OC)cc2)C(=O)c2ccc(OC)cc2)cc1
inactive: dose: 25.0 mg/kg/injection, schedule: Q01DX009 (ip), vehicle: Klucel (hydroxypropylcellulose) (HPC) 88 % of control | [6] 96 % of control | [7] 89 % of control | [8] 94 % of control | [9] 105 % of control

C/C(=N\NC(=S)Nc1cc(I)ccc1C)c1cc([N+](=O)[O-])c(O)cc1O
inactive: dose: 12.5 mg/kg/injection, schedule: Q04DX002 (ip), vehicle: Klucel (hydroxypropylcellulose) (HPC) 102 % of control | dose: 25.0 mg/kg/injection, schedule: Q04DX002 (ip), vehicle: Klucel (hydroxypropylcellulose) (HPC) 97 % of control | dose: 50.0 mg/kg/injection, schedule: Q04DX002 (ip), vehicle: Klucel (hydroxypropylcellulose) (HPC) 105 % of control

CCCCCCN(CCCCCC)P(=O)(N1CC1C)N1CC1C (stereo not given)
inactive: [1] 104 % of control | [4] 101 % of control

O=C1C=C(c2ccccc2)C(=O)C2(c3ccccc3)C=CCC(c3ccccc3)C12 (stereo not given)
inactive: dose: 100.0 mg/kg/injection, schedule: Q04DX002 (ip), vehicle: Klucel (hydroxypropylcellulose) (HPC) 113 % of control | dose: 200.0 mg/kg/injection, schedule: Q04DX002 (ip), vehicle: Klucel (hydroxypropylcellulose) (HPC) 113 % of control | dose: 400.0 mg/kg/injection, schedule: Q04DX002 (ip), vehicle: Klucel (hydroxypropylcellulose) (HPC) 95 % of control

CCC(N)(CO)CO
inactive: dose: 100.0 mg/kg/injection, schedule: Q04DX003 (ip), vehicle: saline with Tween-80 98 % of control | dose: 200.0 mg/kg/injection, schedule: Q04DX003 (ip), vehicle: saline with Tween-80 95 % of control | dose: 400.0 mg/kg/injection, schedule: Q04DX003 (ip), vehicle: saline with Tween-80 95 % of control

O=C1C=C/C(=N/S(=O)(=O)c2ccccc2)c2ccccc21
inactive: dose: 6.0 mg/kg/injection, schedule: Q01DX009 (ip), vehicle: DMSO 106 % of control | dose: 12.0 mg/kg/injection, schedule: Q01DX009 (ip), vehicle: DMSO 88 % of control | dose: 25.0 mg/kg/injection, schedule: Q01DX009 (ip), vehicle: DMSO 86 % of control | dose: 25.0 mg/kg/injection, schedule: Q04DX003 (ip), vehicle: DMSO 94 % of control | dose: 50.0 mg/kg/injection, schedule: Q04DX003 (ip), vehicle: DMSO 89 % of control | dose: 100.0 mg/kg/injection, schedule: Q04DX003 (ip), vehicle: DMSO 106 % of control and 88 % of control

Clc1nnc(Cl)c(Cl)c1Cl
inactive: dose: 0.31 mg/kg/injection, schedule: Q01DX009 (ip), vehicle: saline 101 % of control | dose: 0.5 mg/kg/injection, schedule: Q01DX Z (ip), vehicle: carboxymethylcellulose (CMC) 98 % of control | dose: 0.62 mg/kg/injection, schedule: Q01DX009 (ip), vehicle: saline 98 % of control | dose: 0.62 mg/kg/injection, schedule: Q04DX003 (ip), vehicle: acetone 96 % of control | dose: 0.75 mg/kg/injection, schedule: Q01DX009 (ip), vehicle: saline 104 % of control | dose: 1.0 mg/kg/injection, schedule: Q01DX Z (ip), vehicle: carboxymethylcellulose (CMC) 96 % of control | dose: 1.25 mg/kg/injection, schedule: Q01DX009 (ip), vehicle: saline 96 % of control | dose: 1.25 mg/kg/injection, schedule: Q04DX003 (ip), vehicle: acetone 89 % of control | dose: 1.5 mg/kg/injection, schedule: Q01DX009 (ip), vehicle: saline 97 % of control | dose: 1.8 mg/kg/injection, schedule: Q01DX009 (ip), vehicle: saline with Tween-80 102 % of control | dose: 2.0 mg/kg/injection, schedule: Q01DX Z (ip), vehicle: carboxymethylcellulose (CMC) 93 % of control | dose: 2.5 mg/kg/injection, schedule: Q01DX001 (ip), vehicle: saline 97 % of control | dose: 2.8 mg/kg/injection, schedule: Q01DX009 (ip), vehicle: saline with Tween-80 108 % of control | dose: 3.0 mg/kg/injection, schedule: Q01DX009 (ip), vehicle: saline 97 % of control | dose: 4.0 mg/kg/injection, schedule: Q01DX015 (ip), vehicle: carboxymethylcellulose (CMC) 96 % of control | dose: 4.0 mg/kg/injection, schedule: Q01DX Z (ip), vehicle: carboxymethylcellulose (CMC) 93 % of control | dose: 4.2 mg/kg/injection, schedule: Q01DX009 (ip), vehicle: saline with Tween-80 94 % of control | dose: 8.0 mg/kg/injection, schedule: Q01DX015 (ip), vehicle: carboxymethylcellulose (CMC) 93 % of control

Cc1cc(=O)oc2ccc(OS(C)(=O)=O)cc12
inactive: [6] 90 % of control | [7] 101 % of control | [8] 90 % of control

CC(=O)N1CN(C(C)=O)CN(C(C)=O)C1
inactive: [7] 95 % of control | dose: 100.0 mg/kg/injection, schedule: Q04DX002 (ip), vehicle: saline with Tween-80 91 % of control | [8] 92 % of control | dose: 200.0 mg/kg/injection, schedule: Q04DX002 (ip), vehicle: saline with Tween-80 102 % of control | [9] 97 % of control | dose: 400.0 mg/kg/injection, schedule: Q04DX002 (ip), vehicle: saline with Tween-80 95 % of control

Cc1cnc(SCc2ccc(Cl)cc2)[nH]c1=S
inactive: dose: 25.0 mg/kg/injection, schedule: Q01DX Z (ip), vehicle: methylcellulose (MC) 87 % of control | dose: 50.0 mg/kg/injection, schedule: Q01DX Z (ip), vehicle: methylcellulose (MC) 89 % of control

CCCCC(=O)N/N=C/c1cc2c(cc1[N+](=O)[O-])OCO2 (tested in a mixture with another compound)
inactive: dose: 100.0 mg/kg/injection, schedule: Q01DX001 (ip), vehicle: carboxymethylcellulose (CMC) 91 % of control | [2] 91 % of control | dose: 400.0 mg/kg/injection, schedule: Q01DX001 (ip), vehicle: carboxymethylcellulose (CMC) 91 % of control

O=[N+]([O-])c1cc(/C=N/Nc2nnc(N/N=C/c3ccc(Cl)c([N+](=O)[O-])c3)c3ccccc23)ccc1Cl
inactive: [1] 106 % of control | [4] 96 % of control | [5] 100 % of control | [3] 100 % of control
